Laboratory results reported in the SangsterLogP compilation.

Assay: from Ebert, E.; Eckhardt, W.; Jakel, K.; Moser, P.; Sozzi, D.; Vogel, C. (1989). Quantitative structure-activity relationships of fungicidally active triazoles: analogs and stereoisomers of propiconazole …
Conditions: pH 7.0

`Cc1ccc(C2(Cn3cncn3)OCCO2)cc1` and `CCC1COC(Cn2cncn2)(c2ccc([N+](=O)[O-])cc2)O1` (stereo not given) are within 0.2 log units of each other in logD: 1.55 for the first, 1.52 for the second.

Going from `CCC1COC(Cn2cncn2)(c2ccc(NC(=O)NC)cc2)O1` (stereo not given) to `CCC1COC(Cn2cncn2)(c2ccc(NC(=O)C(F)(F)F)cc2)O1` (stereo not given), the logD rises from 0.62 to 1.08.

Compared with `CCC1COC(Cn2cncn2)(c2ccc(NC(=O)c3ccc([N+](=O)[O-])cc3)cc2)O1` (stereo not given), `CCC1COC(Cn2cncn2)(c2ccc(-c3ccccc3)cc2)O1` (stereo not given) is higher in logD: 2.17 for the first, 3.71 for the second.

First: OCC1COC(Cn2cncn2)(c2ccc(Cl)cc2Cl)O1 (stereo not given)
Second: CCC1COC(Cn2cncn2)(c2ccc(Cl)cc2Cl)O1 (stereo not given)
The logD of the first is lower: 1.76 for the first, 3.03 for the second.

First: CC1COC(Cn2cncn2)(c2ccc(-n3cncn3)cc2Cl)O1 (stereo not given)
Second: COCCOCC1COC(Cn2cncn2)(c2ccc(Cl)cc2Cl)O1 (stereo not given)
The logD of the first is lower: 1.28 for the first, 2.03 for the second.
